Measured values: patent US5760036A, “Aminediol protease inhibitors” (E. R. Squibb & Sons, Inc., priority 1995, dated 1998)
Where two headings read alike, the source gives them in different places.

How the values were obtained:
HIV protease = biological target: T1, HIV protease (Human immunodeficiency virus type 1 group M subtype B, UniProt P04585); assay: HIV Protease Assay; assay type: biochemical
T1 construct: and purified protease
In short: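 Purified protease cleaved 450 μM octapeptide substrate in 50 mM sodium acetate pH 5.5 with 100 μg/ml BSA for 30 minutes at 37° C; product analyzed by reverse-phase HPLC at UV220 after H3PO4 quench. Inhibitors tested at final 10 μM with 4% DMSO.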

[1] = tested on: RF strain of HIV (CEM-SS cells); assay: Cell Culture Anti-HIV Activity (cell viability, formazan); assay type: cell-based; conditions: Human immunodeficiency virus 1, CEM-SS, 144 h, CEM-SS cells, RF strain of HIV, multiplicity of infection 0.04, 6 days at 37° C., 450 nm; read-out: HIV (CEM Cells) IC50
Procedure: The antiviral activity of aminediol inhibitors of the present invention was evaluated by a microculture method which determines the increase in cell viability of an infected culture when a drug is added. The assay depends on the metabolic reduction of tetrazolium reagent by viable cells to yield a soluble colored formazan product.
The assay was performed as follows: suspensions of CEM-SS cells (5000/well) were infected with the RF strain of HIV at a multiplicity of infection at 0.04 in a 96-well plate. The compounds of the present invention listed in the following Table 1, serially diluted in half-log fashion, were added to the infected and uninfected control cells. Untreated (infected and uninfected) cells were included as controls. Following incubation for 6 days at 37° C., viable cells in each well were quantitated by the visible light absorbance at 450 nm.
The IC50 was calculated as the concentration of drug that increased the formazan production in virally infected cells to 50% of that produced by uninfected cells in the absence of drug.

[2] = pH 5.5, read-out: HIV Protease % Inhibition at 10 μM
[3] = pH 5.5, 10 μM inhibitor, 4% DMSO, 450 μM substrate, pH 5.5, 30 minutes at 37° C., RP-HPLC, read-out: HIV Protease % Inhibition at 10 μM

Molecule `CC(C)(C)OC(=O)N[C@@H](CC1CCCCC1)[C@H](O)CNC[C@@H](O)[C@H](CC1CCCCC1)NC(=O)OC(C)(C)C` [Compound 14, [R-(R*,S*)]-[Iminobis[1-(cyclohexylmethyl)-2-hydroxy-3,1-propanediyl]]-biscarbamic acid, bis(1,1-dimethylethyl) ester] has an inhibition at 10 µM (HIV protease; [2]) of 100% and an IC50 [1] of 1100 nM.

With `CC(C)(C)OC(=O)N[C@@H](Cc1ccccc1)[C@H](O)CNC[C@@H](O)[C@H](Cc1ccc(OCCCN2CCOCC2)cc1)NC(=O)OC(C)(C)C` [Compound 201, [1S-[1R*,2S*(2S*,3R*)]]-[3-[[3-[[(1,1-Dimethylethoxy)carbonyl]aminol-2-hydroxy-4-[4-[3-(4-morpholinyl)propoxy]phenyl]butyl]amino]-2-hydroxy-1-(phenylmethyl)propyl]carbamic acid, 1,1-dimethylethyl ester] the inhibition at 10 µM (HIV protease; [3]) was 99% and the IC50 [1] was 40 nM.

For `CC(C)[C@H](NC(=O)[C@H](O)Cc1ccccc1)C(=O)N[C@@H](Cc1ccccc1)[C@H](O)CNC[C@@H](O)[C@H](Cc1ccccc1)NC(=O)OC(C)(C)C` [Compound 78, [S-[1R*,2S*[2S*,3R*,N1S*]-N-[3-[[3-[[(1,1-Dimethylethoxy)carbonyl]amino]-2-hydroxy-4-phenylbutyl]amino]-2-hydroxy-1-(phenylmethyl)[propyl]-N^2-(2-hydroxy-1-oxo-3-phenyl-propyl)-L-valinamide], the inhibition at 10 µM (HIV protease; [3]) was 99% and the IC50 [1] was 160 nM.

With `CC(C)(C)OC(=O)N[C@@H](Cc1ccccc1)[C@H](O)CNC[C@@H](O)[C@H](Cc1ccccc1)NC(=O)OC(C)(C)CCOCc1ccccc1` [Compound 158, [1S-(1R*,2S*)]-[Iminobis[2-hydroxy-1-(phenylmethyl)-3,1-propanediyl]biscarbamic acid, 1,1-dimethylethyl 1,1-dimethyl-3-(phenylmethoxy)-propyl ester] the inhibition at 10 µM (HIV protease; [3]) was 97% and the IC50 [1] was > 1800 nM.

`CC(C)[C@H](NC(=O)OCCNc1ccccc1)C(=O)N[C@@H](Cc1ccccc1)[C@H](O)CNC[C@@H](O)[C@H](Cc1ccccc1)NC(=O)OC(C)(C)C` (relative stereo) [Compound 203, [1R*,2S*(2S*,3R*)]-N-[3-[[3-[[(1,1-Dimethylethoxy)carbonyl]amino]-2-hydroxy-4-phenylbutyl]amino]-2-hydroxy-1-(phenylmethyl)propyl]-N^2-[[2-(phenylamino)ethoxy]carbonyl]-L-valinamide] gave an inhibition at 10 µM (HIV protease; [3]) of 98% and an IC50 [1] of 200 nM.

Work on `CC(C)(C)OC(=O)N[C@@H](Cc1ccccc1)[C@H](O)CNC[C@@H](O)[C@H](Cc1ccccc1)NC(=O)[C@](C)(O)c1ccccc1` [Compound 353, [1S-[1R*,2S*[2S*,3R*(S*)]]]-[3-[[3-[(2-Hydroxy-1-oxo-2-phenylpropyl)amino]-2-hydroxy-4-phenylbutyl]amino]-2-hydroxy-l-(phenylmethyl)propyl]carbamic acid, 1,1-dimethylethyl ester] yielded an inhibition at 10 µM (HIV protease; [2]) of 98% and an IC50 [1] of 1100 nM.

With `COC(=O)N[C@H](C(=O)N[C@@H](Cc1ccccc1)[C@H](O)CNC[C@@H](O)[C@H](Cc1ccccc1)NC(=O)OC(C)(C)CO)C(C)(C)C` (relative stereo) [Compound 359, [1R*,2S*(2S*,3R*)]-N-[2-Hydroxy-3-[[2-hydroxy-3-[[(2-hydroxy-1,1-dimethylethoxy)-carbonyl]amino]-4-phenylbutyl]amino]-1-(phenylmethyl)propyl]-N^2-(2-methoxycarbonyl)-3-methyl-L-valinamide] the inhibition at 10 µM (HIV protease; [3]) was 99% and the IC50 [1] was 560 nM.

`C[C@H](NC=O)C(=O)N[C@H](C(=O)N[C@@H](Cc1ccccc1)[C@H](O)CNC[C@@H](O)[C@H](Cc1ccccc1)NC(=O)OC(C)(C)C)C(C)(C)C` (relative stereo) [Compound 284, [1R*,2S*(2S*,3R*)]-N-[3-[[(1,1-Dimethylethoxy)carbonyl]amino]-2-hydroxy-4-phenylbutyl]amino]-2-hydroxy-1-(phenylmethyl)propyl]-N^2-(N-formyl-L-alanyl)-3-methyl-L-valinamide] gave an inhibition at 10 µM (HIV protease; [3]) of 100% and an IC50 [1] of 4400 nM.

Molecule `CC(C)[C@H](NC(=O)c1ccc2ccccc2c1)C(=O)N[C@@H](Cc1ccccc1)[C@H](O)CNC[C@@H](O)[C@H](Cc1ccccc1)NC(=O)OC(C)(C)C` [Compound 79, [S-[1R*,2S*(2S*,3R*)]]-N-[3-[[3-[[(1,1-Dimethylethoxy)carbonyl]amino]-2-hydroxy-4-phenylbutyl]amino]-2-hydroxy-1-(phenylmethyl)propyl]-N^2 (2-naphthalenylcarbonyl)-L-valinamide] has an inhibition at 10 µM (HIV protease; [3]) of 99% and an IC50 [1] of 400 nM.

For `CC(C)(C)OC(=O)N[C@@H](Cc1ccccc1)[C@H](O)CNC[C@@H](O)[C@H](Cc1ccccc1)NC(=O)C1(O)CCOC1` (stereo partly drawn) [Compound 330, [1S-[1R*,2S*(2S*,3R*)]]-[2-hydroxy-3-[[2-hydroxy-3-[[(tetrahydro-3-hydroxy-3-furanyl)carbonyl]amino]-4-phenylbutyl]amino]-1-(phenylmethyl)propyl]carbamic acid, 1,1-dimethylethyl ester], the inhibition at 10 µM (HIV protease; [3]) was 92% and the IC50 [1] was 850 nM.

In the case of `CC(C)(C)OC(=O)N[C@@H](Cc1ccccc1)[C@H](O)CNC[C@@H](O)[C@H](Cc1ccccc1)NC(=O)SC(C)(C)C` [Compound 184, [1S-[1R*,2S*(2S*,3R*)]]-[3-[[3-[[[(1 1-Dimethylethyl)thio)carbonyl]amino]-2-hydroxy-4-phenylbutyl]amino]-2-hydroxy-1-(phenylmethyl)-propyl]carbamic acid, 1,1-dimethylethyl ester], the inhibition at 10 µM (HIV protease; [3]) is reported as 99% and the IC50 [1] is reported as 1300 nM.

Molecule `CC(C)[C@H](NC(=O)CCc1c[nH]c2ccccc12)C(=O)N[C@@H](Cc1ccccc1)[C@H](O)CNC[C@@H](O)[C@H](Cc1ccccc1)NC(=O)OC(C)(C)C` (relative stereo) [Compound 260, [1R*,2S*(2S*,3R*)]-N-[3-[[3-[[(1,1-Dimethylethoxy)carbonyl]amino]-2-hydroxy-4-phenylbutyl]amino]-2-hydroxy-1-(phenylmethyl)propyl]-N^2-[3-(1H-indol-3-yl)-1-oxo-propyl]-L-valinamide] has an inhibition at 10 µM (HIV protease; [3]) of 100% and an IC50 [1] of 290 nM.

Molecule `CC(C)[C@H](NC(=O)N(C)Cc1ccccn1)C(=O)N[C@@H](Cc1ccccc1)[C@H](O)CNC[C@@H](O)[C@H](Cc1ccccc1)NC(=O)[C@@H](NC(=O)N(C)Cc1ccccn1)C(C)C` [Compound 75, [S-(1R*,2S*)]-N,N'-[Iminobisr[2-hydroxy-1-(phenylmethyl)-3,1-propanediyl]bisr[N^2-[[methyl(2-pyridinylmethyl)amino]carbonyl]-L-valinamide] has an inhibition at 10 µM (HIV protease; [3]) of 100% and an IC50 [1] of 5000 nM.

Molecule `CC(C)(C)OC(=O)N[C@@H](Cc1ccccc1)[C@H](O)CNC[C@@H](O)[C@H](Cc1ccc(OCC(O)c2cccnc2)cc1)NC(=O)OC(C)(C)C` (single isomer, unassigned; isomer a) [Compound 355, [1S-[1R*,2S* (2S*,3R*)]]-[3-[[3-[[(1,1-Dimethylethoxy)carbonyl]amino]-2-hydroxy-4-[4-[2-hydroxy-2-(3-pyridinyl)ethoxy]phenyl]-butyl]amino]-2-hydroxy-1-(phenylmethyl)-propyl]-carbamic acid, 1,1-dimethylethyl ester, Isomer A] has an inhibition at 10 µM (HIV protease; [2]) of 99% and an IC50 [1] of 70 nM.
